Data as given in PubChem BioAssay AID330 (DTP/NCI, 2004).
“And” between values parts separate entries of the source, which are not always exact repeats. Identical values can stand only once. Inconclusive results and toxic doses are left out. How the source made its calls: active means survival T/C of 150% or more; inactive means T/C below 125% in these data.

System: P388 leukemia ip, CD2F1 mice, survival T/C
Assay: NCI In Vivo Anticancer Drug Screen. Data for tumor model P388 Leukemia (intraperitoneal) in CD2F1 (CDF1) mice
Details: endpoint: median survival time, higher = longer survival
Summary of the method: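 Mice carrying the transplanted tumor received test compound or vehicle. Survival was recorded in each group, and the value is the treated-group measurement divided by that of the vehicle-treated control group.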

[1] = dose: 50.0 mg/kg/injection, schedule: Q01DX005 (ip), vehicle: Klucel (hydroxypropylcellulose) (HPC)
[2] = dose: 100.0 mg/kg/injection, schedule: Q01DX005 (ip), vehicle: Klucel (hydroxypropylcellulose) (HPC)
[3] = dose: 100.0 mg/kg/injection, schedule: Q04DX003 (ip), vehicle: saline
[4] = dose: 200.0 mg/kg/injection, schedule: Q04DX003 (ip), vehicle: saline
[5] = dose: 60.0 mg/kg/injection, schedule: Q01DX005 (ip), vehicle: saline with Tween-80
[6] = dose: 120.0 mg/kg/injection, schedule: Q01DX005 (ip), vehicle: saline with Tween-80
[7] = dose: 240.0 mg/kg/injection, schedule: Q01DX005 (ip), vehicle: saline with Tween-80
[8] = dose: 50.0 mg/kg/injection, schedule: Q01DX005 (ip), vehicle: saline with Tween-80
[9] = dose: 100.0 mg/kg/injection, schedule: Q01DX005 (ip), vehicle: saline with Tween-80
[10] = dose: 200.0 mg/kg/injection, schedule: Q01DX005 (ip), vehicle: saline with Tween-80
[11] = dose: 50.0 mg/kg/injection, schedule: Q01DX009 (ip), vehicle: saline with Tween-80
[12] = dose: 100.0 mg/kg/injection, schedule: Q01DX009 (ip), vehicle: saline with Tween-80
[13] = dose: 12.5 mg/kg/injection, schedule: Q01DX005 (ip), vehicle: saline
[14] = dose: 25.0 mg/kg/injection, schedule: Q01DX005 (ip), vehicle: saline

Measured: T/C

O=C(O)CSc1nnc(C2CCC(=O)N2Cc2ccccc2)o1 (configuration not stated)
inactive: dose: 100.0 mg/kg/injection, schedule: Q01DX001 (ip), vehicle: saline with Tween-80 99 % of control | dose: 200.0 mg/kg/injection, schedule: Q01DX001 (ip), vehicle: saline with Tween-80 101 % of control | dose: 400.0 mg/kg/injection, schedule: Q01DX001 (ip), vehicle: saline with Tween-80 95 % of control

CCN(CC)CC(O)c1cc(-c2ccccc2)nc2ccc(OC)cc12 (configuration not stated)
inactive: [1] 100 % of control | [2] 92 % of control

Cc1cc(NS(=O)(=O)c2ccc(NC(=O)NCCCl)cc2)no1
inactive: dose: 30.0 mg/kg/injection, schedule: Q01DX005 (ip), vehicle: Klucel (hydroxypropylcellulose) (HPC) 99 % of control | dose: 60.0 mg/kg/injection, schedule: Q01DX005 (ip), vehicle: Klucel (hydroxypropylcellulose) (HPC) 98 % of control | dose: 120.0 mg/kg/injection, schedule: Q01DX005 (ip), vehicle: Klucel (hydroxypropylcellulose) (HPC) 100 % of control | dose: 240.0 mg/kg/injection, schedule: Q01DX005 (ip), vehicle: Klucel (hydroxypropylcellulose) (HPC) 100 % of control

COC(=O)/C(C#N)=C1\C(=O)OCC1(C)C
inactive: [3] 104 % of control | [4] 94 % of control | dose: 400.0 mg/kg/injection, schedule: Q04DX003 (ip), vehicle: saline 98 % of control

COC(=O)c1ccc(Cl)cc1O
inactive: dose: 12.5 mg/kg/injection, schedule: Q01DX009 (ip), vehicle: distilled water + Tween-80 92 % of control | dose: 25.0 mg/kg/injection, schedule: Q01DX009 (ip), vehicle: distilled water + Tween-80 100 % of control | dose: 50.0 mg/kg/injection, schedule: Q01DX009 (ip), vehicle: distilled water + Tween-80 102 % of control | dose: 100.0 mg/kg/injection, schedule: Q01DX009 (ip), vehicle: distilled water + Tween-80 102 % of control | dose: 200.0 mg/kg/injection, schedule: Q01DX009 (ip), vehicle: distilled water + Tween-80 92 % of control

CC1=C2CCC3(C)C(=C2OC1=O)C(C)=C(Cl)C(Cl)C3Cl (configuration not stated)
inactive: [1] 113 % of control | [2] 119 % of control | dose: 200.0 mg/kg/injection, schedule: Q01DX005 (ip), vehicle: Klucel (hydroxypropylcellulose) (HPC) 115 % of control

COc1ccc(OC)c(NC(=S)NC(=O)c2cccc(Br)c2)c1
inactive: [5] 95 % of control | [6] 92 % of control | [7] 89 % of control

c1ccc(CCn2cccc/c2=N/C(=NC2CCCCC2)NC2CCCCC2)cc1
inactive: dose: 100.0 mg/kg/injection, schedule: Q01DX001 (ip), vehicle: suspension in saline 91 % of control | dose: 200.0 mg/kg/injection, schedule: Q01DX001 (ip), vehicle: suspension in saline 88 % of control | dose: 400.0 mg/kg/injection, schedule: Q01DX001 (ip), vehicle: suspension in saline 92 % of control

N#CC1=C(O)/C(=C\c2ccc(Cl)c(Cl)c2)N=C1N
inactive: [8] 89 % of control | [9] 90 % of control | [10] 97 % of control

CCCCN(CCCC)CC(O)c1cc2ccccc2c2cc(Br)ccc12 (configuration not stated)
inactive: [8] 100 % of control | [9] 102 % of control | [10] 100 % of control

Cc1nc(C(=O)O)c(C(=O)O)[nH]1
inactive: dose: 100.0 mg/kg/injection, schedule: Q01DX009 (ip), vehicle: saline sonified 90 % of control | dose: 200.0 mg/kg/injection, schedule: Q01DX009 (ip), vehicle: saline sonified 100 % of control

[CH3][Sn]([CH3])([CH3])[O][N+](=O)[O-]
inactive: dose: 0.37 mg/kg/injection, schedule: Q01DX009 (ip), vehicle: saline 111 % of control | dose: 0.75 mg/kg/injection, schedule: Q01DX009 (ip), vehicle: saline 91 % of control

CC(=O)C1=CN(Cc2ccccc2)C=C(C(C)C)C1
inactive: dose: 50.0 mg/kg/injection, schedule: Q04DX003 (ip), vehicle: saline 98 % of control | dose: 50.0 mg/kg/injection, schedule: Q04DX003 (ip), vehicle: suspension in saline 104 % of control | [3] 101 % of control | dose: 100.0 mg/kg/injection, schedule: Q04DX003 (ip), vehicle: suspension in saline 103 % of control | [4] 104 % of control | dose: 200.0 mg/kg/injection, schedule: Q04DX003 (ip), vehicle: suspension in saline 105 % of control

CSc1nccc(=O)n1-c1ccccc1F
inactive: dose: 25.0 mg/kg/injection, schedule: Q04DX002 (ip), vehicle: Klucel (hydroxypropylcellulose) (HPC) 102 % of control | dose: 50.0 mg/kg/injection, schedule: Q04DX002 (ip), vehicle: Klucel (hydroxypropylcellulose) (HPC) 104 % of control | dose: 100.0 mg/kg/injection, schedule: Q04DX002 (ip), vehicle: Klucel (hydroxypropylcellulose) (HPC) 102 % of control

CN1C(=O)CC(Sc2ccccc2)c2cc(Cl)ccc21 (configuration not stated)
inactive: dose: 25.0 mg/kg/injection, schedule: Q01DX009 (ip), vehicle: saline with Tween-80 99 % of control | [11] 100 % of control | [12] 97 % of control

CC1CC(C)(C)N=C(CCC2CCCC23OCCO3)O1 (configuration not stated)
inactive: [11] 100 % of control | [12] 104 % of control | dose: 100.0 mg/kg/injection, schedule: Q04DX003 (ip), vehicle: saline sonified 96 % of control | dose: 200.0 mg/kg/injection, schedule: Q01DX009 (ip), vehicle: saline with Tween-80 95 % of control | dose: 200.0 mg/kg/injection, schedule: Q04DX003 (ip), vehicle: saline sonified 96 % of control | dose: 400.0 mg/kg/injection, schedule: Q04DX003 (ip), vehicle: saline sonified 100 % of control

[NH-]CC[N-]CCO.[NH-]CC[N-]CCO.[NH-]CC[N-]CCO.[Ni]
inactive: dose: 6.25 mg/kg/injection, schedule: Q01DX005 (ip), vehicle: saline 93 % of control | [13] 98 % of control | [14] 107 % of control

CC1(C)OC(=O)C(C)(C2(O)C=CCCC2)O1 (configuration not stated)
inactive: dose: 100.0 mg/kg/injection, schedule: Q01DX001 (ip), vehicle: Klucel (hydroxypropylcellulose) (HPC) 102 % of control | dose: 200.0 mg/kg/injection, schedule: Q01DX001 (ip), vehicle: Klucel (hydroxypropylcellulose) (HPC) 102 % of control | dose: 400.0 mg/kg/injection, schedule: Q01DX001 (ip), vehicle: Klucel (hydroxypropylcellulose) (HPC) 101 % of control

CCCCN(CCCC)CCC(=O)OCC
inactive: dose: 100.0 mg/kg/injection, schedule: Q04DX003 (ip), vehicle: saline with Tween-80 104 % of control | dose: 200.0 mg/kg/injection, schedule: Q04DX003 (ip), vehicle: saline with Tween-80 100 % of control | dose: 400.0 mg/kg/injection, schedule: Q04DX003 (ip), vehicle: saline with Tween-80 109 % of control

Oc1ccc2ccccc2c1C(c1ccc(Cl)cc1)c1c(O)ccc2ccccc12
inactive: [8] 100 % of control | [9] 101 % of control | [10] 107 % of control

COc1cc2c(cc1OC)[C@H](C(=O)O)[C@@H](c1ccc(OC(C)C)c(OC)c1)N(C)C2=O
inactive: [5] 95 % of control | [6] 100 % of control | [7] 100 % of control

c1cc2cc(C3=NCCN3)[nH]c2cc1C1=NCCN1
inactive: [13] 98 % of control | [14] 103 % of control | dose: 50.0 mg/kg/injection, schedule: Q01DX005 (ip), vehicle: saline 99 % of control

Cc1ccc2c(c1)C1(C)OC(C=CC1=O)O2 (configuration not stated)
inactive: dose: 25.0 mg/kg/injection, schedule: Q04DX003 (ip), vehicle: Klucel (hydroxypropylcellulose) (HPC) 99 % of control and 119 % of control | dose: 50.0 mg/kg/injection, schedule: Q04DX003 (ip), vehicle: Klucel (hydroxypropylcellulose) (HPC) 98 % of control | dose: 100.0 mg/kg/injection, schedule: Q04DX003 (ip), vehicle: Klucel (hydroxypropylcellulose) (HPC) 123 % of control and 97 % of control | dose: 200.0 mg/kg/injection, schedule: Q04DX003 (ip), vehicle: Klucel (hydroxypropylcellulose) (HPC) 113 % of control

O=C(O)CN(CC(=O)O)C1CC1N(CC(=O)O)CC(=O)O (configuration not stated)
inactive: dose: 50.0 mg/kg/injection, schedule: Q01DX009 (ip), vehicle: saline 97 % of control | dose: 100.0 mg/kg/injection, schedule: Q01DX001 (ip), vehicle: saline 96 % of control | dose: 100.0 mg/kg/injection, schedule: Q01DX009 (ip), vehicle: saline 100 % of control | dose: 200.0 mg/kg/injection, schedule: Q01DX001 (ip), vehicle: saline 100 % of control | dose: 200.0 mg/kg/injection, schedule: Q01DX009 (ip), vehicle: saline 97 % of control | dose: 400.0 mg/kg/injection, schedule: Q01DX001 (ip), vehicle: saline 97 % of control
